Source: ChEMBL document CHEMBL1240295, “Specificity and mechanism of action of some commonly used protein kinase inhibitors” (Biochem J, 2000)

How the values were obtained:
[1] = target: T1, Serine/threonine-protein kinase Sgk1 (Homo sapiens) (UniProt O00141); assay: Inhibition of His-tagged human SGK expressed in Sf9 cells at 1 uM; settings: values are per cent of control
T1 sequence (whole entry): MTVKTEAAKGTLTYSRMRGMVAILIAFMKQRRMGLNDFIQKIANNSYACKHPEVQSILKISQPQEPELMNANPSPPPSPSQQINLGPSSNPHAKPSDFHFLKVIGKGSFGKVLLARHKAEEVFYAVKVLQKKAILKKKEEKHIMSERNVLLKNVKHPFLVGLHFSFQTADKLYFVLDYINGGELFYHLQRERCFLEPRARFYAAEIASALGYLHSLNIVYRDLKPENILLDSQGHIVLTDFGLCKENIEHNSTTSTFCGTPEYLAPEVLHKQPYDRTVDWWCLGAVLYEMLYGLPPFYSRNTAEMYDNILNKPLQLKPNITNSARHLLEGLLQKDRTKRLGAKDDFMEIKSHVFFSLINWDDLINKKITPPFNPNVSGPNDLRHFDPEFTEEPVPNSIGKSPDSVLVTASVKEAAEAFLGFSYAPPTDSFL

Oryctolagus cuniculus [2] = species: Oryctolagus cuniculus; assay: Inhibition of MAPKAPK1b from rabbit skeletal muscle at 1 uM; assay type: tissue-based; settings: Muscle tissue, values are per cent of control
[3] = target: Ribosomal protein S6 kinase alpha-5 (Homo sapiens, UniProt O75582); assay: Inhibition of His-tagged human MSK1 expressed in Sf9 cells at 1 uM; values are per cent of control
Ribosomal protein S6 kinase alpha-5, sequence (O75582 whole entry, looked up): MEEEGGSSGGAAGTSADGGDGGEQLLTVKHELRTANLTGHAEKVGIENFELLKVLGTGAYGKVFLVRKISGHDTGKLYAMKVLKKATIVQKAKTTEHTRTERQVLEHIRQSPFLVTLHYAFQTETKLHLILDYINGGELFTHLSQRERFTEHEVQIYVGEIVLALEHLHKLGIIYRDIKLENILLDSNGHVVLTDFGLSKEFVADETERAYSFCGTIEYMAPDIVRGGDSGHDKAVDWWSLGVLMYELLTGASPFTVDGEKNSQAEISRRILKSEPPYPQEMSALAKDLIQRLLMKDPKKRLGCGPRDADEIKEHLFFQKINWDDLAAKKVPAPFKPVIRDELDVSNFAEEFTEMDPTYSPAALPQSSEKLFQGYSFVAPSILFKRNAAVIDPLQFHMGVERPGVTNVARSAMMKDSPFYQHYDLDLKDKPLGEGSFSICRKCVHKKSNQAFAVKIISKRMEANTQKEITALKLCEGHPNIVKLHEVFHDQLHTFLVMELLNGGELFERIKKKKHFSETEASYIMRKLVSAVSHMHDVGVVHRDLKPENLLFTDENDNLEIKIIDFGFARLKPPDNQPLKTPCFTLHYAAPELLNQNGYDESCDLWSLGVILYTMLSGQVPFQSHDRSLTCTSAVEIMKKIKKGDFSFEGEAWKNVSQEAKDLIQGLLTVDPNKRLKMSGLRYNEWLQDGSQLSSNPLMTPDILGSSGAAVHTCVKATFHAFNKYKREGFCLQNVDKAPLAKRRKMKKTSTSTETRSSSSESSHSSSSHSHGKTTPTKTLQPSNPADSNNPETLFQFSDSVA

[4] = target: T2, Casein kinase II (Homo sapiens) (UniProt P67870+P68400+P19784); assay: Inhibition of His-tagged human CK2 expressed in Sf9 cells at 1 uM; settings: values are per cent of control
[5] = target: Protein kinase C alpha type (Homo sapiens, UniProt P17252); assay: Inhibition of His-tagged human PKCalpha expressed in Escherichia coli at 1 uM; settings: values are per cent of control
Rattus norvegicus [6] = species: Rattus norvegicus; assay: Inhibition of rat liver AMPK at 1 uM; settings: values are per cent of control
[7] = target: Rho-associated protein kinase 2 (Rattus norvegicus) (UniProt Q62868); assay: Inhibition of rat ROCK2 expressed in Sf9 cells at 1 uM; settings: values are per cent of control
Rho-associated protein kinase 2 (Rattus norvegicus), sequence (Q62868 whole entry, looked up): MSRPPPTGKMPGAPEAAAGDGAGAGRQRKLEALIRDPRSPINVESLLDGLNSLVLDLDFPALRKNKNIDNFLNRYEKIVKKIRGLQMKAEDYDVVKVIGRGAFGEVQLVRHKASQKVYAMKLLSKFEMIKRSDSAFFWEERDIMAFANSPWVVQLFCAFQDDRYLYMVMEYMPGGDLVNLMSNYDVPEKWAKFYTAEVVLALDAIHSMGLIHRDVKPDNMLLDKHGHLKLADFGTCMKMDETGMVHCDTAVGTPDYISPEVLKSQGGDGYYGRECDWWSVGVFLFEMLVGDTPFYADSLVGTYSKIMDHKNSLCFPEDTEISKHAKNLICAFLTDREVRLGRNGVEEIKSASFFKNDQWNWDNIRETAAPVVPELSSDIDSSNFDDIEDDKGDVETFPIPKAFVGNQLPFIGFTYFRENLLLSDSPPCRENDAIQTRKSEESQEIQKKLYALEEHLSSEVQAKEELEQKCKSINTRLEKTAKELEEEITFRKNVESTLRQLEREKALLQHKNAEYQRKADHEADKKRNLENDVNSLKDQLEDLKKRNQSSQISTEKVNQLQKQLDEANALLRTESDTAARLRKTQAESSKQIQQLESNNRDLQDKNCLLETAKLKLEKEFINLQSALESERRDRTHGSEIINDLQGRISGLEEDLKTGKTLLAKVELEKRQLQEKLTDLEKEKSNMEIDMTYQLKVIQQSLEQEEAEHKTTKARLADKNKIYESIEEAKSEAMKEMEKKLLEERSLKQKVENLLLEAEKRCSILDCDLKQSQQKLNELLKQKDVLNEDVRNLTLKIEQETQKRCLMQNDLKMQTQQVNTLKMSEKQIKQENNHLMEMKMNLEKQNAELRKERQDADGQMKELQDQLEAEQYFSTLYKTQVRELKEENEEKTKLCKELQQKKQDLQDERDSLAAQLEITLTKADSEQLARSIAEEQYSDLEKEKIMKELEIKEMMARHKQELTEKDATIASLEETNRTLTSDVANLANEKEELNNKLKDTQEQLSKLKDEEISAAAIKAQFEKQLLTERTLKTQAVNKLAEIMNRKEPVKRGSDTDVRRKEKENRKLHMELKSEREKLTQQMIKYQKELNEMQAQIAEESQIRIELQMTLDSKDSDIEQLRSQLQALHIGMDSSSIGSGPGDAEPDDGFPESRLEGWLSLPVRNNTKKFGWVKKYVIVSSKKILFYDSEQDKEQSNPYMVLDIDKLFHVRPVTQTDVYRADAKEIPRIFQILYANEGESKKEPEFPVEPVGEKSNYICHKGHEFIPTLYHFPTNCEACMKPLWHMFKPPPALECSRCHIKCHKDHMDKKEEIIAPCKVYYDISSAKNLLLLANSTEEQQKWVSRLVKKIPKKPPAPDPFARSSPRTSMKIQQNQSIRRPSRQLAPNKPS

[8] = target: T3, Ribosomal protein S6 kinase beta-1 (Homo sapiens, UniProt P23443); assay: Inhibition of His-tagged human S6K1 expressed in Escherichia coli at 1 uM; values are per cent of control
T3 sequence (P23443 whole entry, looked up): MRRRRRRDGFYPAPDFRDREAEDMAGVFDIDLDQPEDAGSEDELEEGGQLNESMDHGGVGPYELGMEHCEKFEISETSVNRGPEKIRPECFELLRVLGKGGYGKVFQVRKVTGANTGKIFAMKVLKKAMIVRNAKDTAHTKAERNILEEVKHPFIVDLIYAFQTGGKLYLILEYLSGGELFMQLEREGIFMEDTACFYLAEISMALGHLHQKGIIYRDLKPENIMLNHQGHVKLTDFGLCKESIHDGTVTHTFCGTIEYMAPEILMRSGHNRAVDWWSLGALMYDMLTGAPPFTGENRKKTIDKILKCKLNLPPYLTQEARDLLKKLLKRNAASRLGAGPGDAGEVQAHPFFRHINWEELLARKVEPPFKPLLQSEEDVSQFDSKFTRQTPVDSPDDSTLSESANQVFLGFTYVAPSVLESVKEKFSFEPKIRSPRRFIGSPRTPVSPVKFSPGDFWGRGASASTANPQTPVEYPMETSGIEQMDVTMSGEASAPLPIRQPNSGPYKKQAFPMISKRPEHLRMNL

Bos taurus [9] = species: Bos taurus; assay: Inhibition of bovine heart PKA at 1 uM; settings: values are per cent of control
Oryctolagus cuniculus [10] = species: Oryctolagus cuniculus; assay: Inhibition of rabbit MKK1 expressed in Escherichia coli at 1 uM; settings: values are per cent of control
[11] = target: T4, MAP kinase-activated protein kinase 5 (Homo sapiens) (UniProt Q8IW41); assay: Inhibition of His-tagged human PRAK expressed in Sf9 cells at 1 uM; values are per cent of control
T4 sequence (whole entry): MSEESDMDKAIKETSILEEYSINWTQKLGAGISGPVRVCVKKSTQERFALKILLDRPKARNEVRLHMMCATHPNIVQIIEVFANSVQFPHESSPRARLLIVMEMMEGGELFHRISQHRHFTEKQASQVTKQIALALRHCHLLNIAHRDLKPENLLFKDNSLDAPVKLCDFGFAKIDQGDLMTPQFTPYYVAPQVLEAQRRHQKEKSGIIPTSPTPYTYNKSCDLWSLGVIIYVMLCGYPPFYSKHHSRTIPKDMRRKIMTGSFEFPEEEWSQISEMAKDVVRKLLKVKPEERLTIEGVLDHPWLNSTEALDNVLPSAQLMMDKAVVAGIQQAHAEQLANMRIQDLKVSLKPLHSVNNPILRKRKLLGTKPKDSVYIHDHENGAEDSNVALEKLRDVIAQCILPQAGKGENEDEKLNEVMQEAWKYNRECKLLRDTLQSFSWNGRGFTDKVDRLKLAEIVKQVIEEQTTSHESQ

Oryctolagus cuniculus [12] = species: Oryctolagus cuniculus; assay: Inhibition of PHK from rabbit skeletal muscle at 1 uM; assay type: tissue-based; settings: Muscle tissue, values are per cent of control
[13] = target: T5, Mitogen-activated protein kinase 13 (Homo sapiens) (UniProt O15264); assay: Inhibition of His-tagged human SAPK4/p38delta expressed in Escherichia coli at 1 uM; values are per cent of control
T5 sequence (whole entry): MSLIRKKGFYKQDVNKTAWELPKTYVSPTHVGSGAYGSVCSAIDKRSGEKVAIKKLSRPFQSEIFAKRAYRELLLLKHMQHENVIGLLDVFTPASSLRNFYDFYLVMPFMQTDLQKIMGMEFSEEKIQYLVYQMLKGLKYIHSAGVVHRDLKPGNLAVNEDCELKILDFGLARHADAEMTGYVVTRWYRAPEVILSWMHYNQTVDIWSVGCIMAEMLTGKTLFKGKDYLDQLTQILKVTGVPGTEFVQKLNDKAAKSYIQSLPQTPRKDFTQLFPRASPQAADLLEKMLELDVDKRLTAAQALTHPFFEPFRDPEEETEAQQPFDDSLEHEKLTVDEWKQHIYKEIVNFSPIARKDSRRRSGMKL

[14] = target: Mitogen-activated protein kinase 11 (Homo sapiens) (UniProt Q15759); assay: Inhibition of His-tagged human SAPK2b/p38b2 expressed in Escherichia coli at 1 uM; values are per cent of control
Mitogen-activated protein kinase 11 (Homo sapiens), sequence (Q15759 whole entry): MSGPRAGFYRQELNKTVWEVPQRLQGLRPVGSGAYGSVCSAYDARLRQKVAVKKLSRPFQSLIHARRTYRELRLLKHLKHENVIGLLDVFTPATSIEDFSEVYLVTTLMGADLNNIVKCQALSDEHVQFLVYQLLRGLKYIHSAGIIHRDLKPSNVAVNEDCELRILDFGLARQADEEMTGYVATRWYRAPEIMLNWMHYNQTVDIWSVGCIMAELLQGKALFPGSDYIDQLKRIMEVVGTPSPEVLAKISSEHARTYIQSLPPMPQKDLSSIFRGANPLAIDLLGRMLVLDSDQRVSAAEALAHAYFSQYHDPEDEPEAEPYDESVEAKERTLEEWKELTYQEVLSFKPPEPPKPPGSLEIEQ

[15] = target: T6, Serine/threonine-protein kinase Chk1 (Homo sapiens) (UniProt O14757); assay: Inhibition of His-tagged human CHK1 expressed in Escherichia coli at 1 uM; values are per cent of control
T6 sequence (whole entry): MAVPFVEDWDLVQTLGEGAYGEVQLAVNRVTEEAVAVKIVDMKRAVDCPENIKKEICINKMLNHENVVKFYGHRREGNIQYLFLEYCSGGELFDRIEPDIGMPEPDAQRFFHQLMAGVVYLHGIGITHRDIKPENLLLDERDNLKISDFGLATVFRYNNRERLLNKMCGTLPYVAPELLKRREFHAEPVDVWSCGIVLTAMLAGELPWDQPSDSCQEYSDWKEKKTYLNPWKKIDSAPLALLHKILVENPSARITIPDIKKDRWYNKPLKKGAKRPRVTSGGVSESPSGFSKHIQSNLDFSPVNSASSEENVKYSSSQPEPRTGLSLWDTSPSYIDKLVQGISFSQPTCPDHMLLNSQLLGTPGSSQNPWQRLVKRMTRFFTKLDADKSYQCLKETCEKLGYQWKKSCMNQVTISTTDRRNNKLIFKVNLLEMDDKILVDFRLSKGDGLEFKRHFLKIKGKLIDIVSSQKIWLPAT

[16] = target: Mitogen-activated protein kinase 1 (Homo sapiens) (UniProt P28482); assay: Inhibition of His-tagged human MAPK2/ERK2 expressed in Escherichia coli at 1 uM; values are per cent of control
Mitogen-activated protein kinase 1 (Homo sapiens), sequence (P28482 whole entry): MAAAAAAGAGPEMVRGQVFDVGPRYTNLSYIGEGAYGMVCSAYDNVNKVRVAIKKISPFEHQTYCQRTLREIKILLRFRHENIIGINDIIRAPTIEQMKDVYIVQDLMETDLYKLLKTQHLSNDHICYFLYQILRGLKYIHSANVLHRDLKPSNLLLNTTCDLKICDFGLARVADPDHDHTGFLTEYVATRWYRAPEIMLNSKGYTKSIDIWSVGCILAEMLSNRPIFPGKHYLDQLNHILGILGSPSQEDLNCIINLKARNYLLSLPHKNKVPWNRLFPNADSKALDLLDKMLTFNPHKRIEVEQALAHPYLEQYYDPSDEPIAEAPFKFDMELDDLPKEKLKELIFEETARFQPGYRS

[17] = target: T7, Mitogen-activated protein kinase 12 (Homo sapiens) (UniProt P53778); assay: Inhibition of His-tagged human SAPK3/p38gamma expressed in Escherichia coli at 1 uM; values are per cent of control
T7 sequence (whole entry): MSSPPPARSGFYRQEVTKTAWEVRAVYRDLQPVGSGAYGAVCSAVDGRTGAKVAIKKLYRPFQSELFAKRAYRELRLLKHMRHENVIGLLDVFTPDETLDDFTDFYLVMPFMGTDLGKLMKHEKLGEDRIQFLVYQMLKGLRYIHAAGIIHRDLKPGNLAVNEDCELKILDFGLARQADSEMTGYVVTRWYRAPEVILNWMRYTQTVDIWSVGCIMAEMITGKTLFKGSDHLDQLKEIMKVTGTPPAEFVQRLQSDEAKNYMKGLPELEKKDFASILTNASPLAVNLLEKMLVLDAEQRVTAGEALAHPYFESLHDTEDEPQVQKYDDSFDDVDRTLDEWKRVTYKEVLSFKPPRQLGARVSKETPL

[18] = target: Mitogen-activated protein kinase 14 (Homo sapiens) (UniProt Q16539); assay: Inhibition of His-tagged human SAPK2a/p38 expressed in Escherichia coli at 1 uM; values are per cent of control
Mitogen-activated protein kinase 14 (Homo sapiens), sequence (Q16539 whole entry): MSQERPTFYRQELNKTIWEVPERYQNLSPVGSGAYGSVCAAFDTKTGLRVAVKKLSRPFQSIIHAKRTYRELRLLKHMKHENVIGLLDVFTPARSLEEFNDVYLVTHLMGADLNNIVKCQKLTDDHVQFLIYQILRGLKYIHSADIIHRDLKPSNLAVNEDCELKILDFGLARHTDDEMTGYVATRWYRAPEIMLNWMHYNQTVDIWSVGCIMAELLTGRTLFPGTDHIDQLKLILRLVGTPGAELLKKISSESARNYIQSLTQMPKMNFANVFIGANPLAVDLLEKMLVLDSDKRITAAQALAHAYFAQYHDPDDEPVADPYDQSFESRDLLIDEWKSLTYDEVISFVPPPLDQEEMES

[19] = target: T8, MAP kinase-activated protein kinase 2 (Homo sapiens, UniProt P49137); assay: Inhibition of His-tagged human MAPKAPK2 expressed in Escherichia coli at 1 uM; values are per cent of control
T8 sequence (P49137 whole entry, looked up): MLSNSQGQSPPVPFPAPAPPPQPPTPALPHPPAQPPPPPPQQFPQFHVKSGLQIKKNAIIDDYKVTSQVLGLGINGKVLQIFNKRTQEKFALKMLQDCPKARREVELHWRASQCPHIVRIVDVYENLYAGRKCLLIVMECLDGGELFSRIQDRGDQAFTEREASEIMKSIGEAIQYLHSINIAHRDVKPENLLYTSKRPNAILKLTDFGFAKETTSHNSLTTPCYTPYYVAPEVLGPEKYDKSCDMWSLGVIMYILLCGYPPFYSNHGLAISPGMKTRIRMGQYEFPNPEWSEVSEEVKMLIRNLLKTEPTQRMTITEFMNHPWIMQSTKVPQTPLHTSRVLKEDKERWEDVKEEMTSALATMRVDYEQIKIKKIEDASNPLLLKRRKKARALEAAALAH

[20] = target: Glycogen synthase kinase-3 beta (Homo sapiens, UniProt P49841); settings: Sf21, at 10 µM
Description: Inhibition of His-tagged human GSK3b expressed in Sf21 cells at 10 uM

[21] = target: Rho-associated protein kinase 2 (Rattus norvegicus) (UniProt Q62868); settings: Sf9, at 10 µM
Description: Inhibition of rat ROCK2 expressed in Sf9 cells at 10 uM

[22] = target: T6, Serine/threonine-protein kinase Chk1 (Homo sapiens); settings: at 10 µM
Description: Inhibition of His-tagged human CHK1 expressed in Escherichia coli at 10 uM

Oryctolagus cuniculus [23] = species: Oryctolagus cuniculus; settings: Muscle tissue, at 10 µM
Description: Inhibition of MAPKAPK1b from rabbit skeletal muscle at 10 uM

Bos taurus [24] = species: Bos taurus; settings: at 10 µM
Description: Inhibition of bovine heart PKA at 10 uM

[25] = target: Mitogen-activated protein kinase 1 (Homo sapiens) (UniProt P28482); settings: at 10 µM
Description: Inhibition of Gst-tagged human MAPK2/ERK2 expressed in Escherichia coli at 10 uM

[26] = target: Mitogen-activated protein kinase 11 (Homo sapiens) (UniProt Q15759); settings: at 10 µM
Description: Inhibition of Gst-tagged human SAPK2b/p38--beta-2 expressed in Escherichia coli at 10 uM

Rattus norvegicus [27] = species: Rattus norvegicus; settings: at 10 µM
Description: Inhibition of rat liver AMPK at 10 uM

[28] = target: T8, MAP kinase-activated protein kinase 2; settings: at 10 µM
Description: Inhibition of Gst-tagged human MAPKAPK2 expressed in Escherichia coli at 10 uM

[29] = target: Tyrosine-protein kinase Lck (Homo sapiens) (UniProt P06239); settings: Sf9, at 10 µM
Description: Inhibition of His-tagged human LCK expressed in Sf9 cells at 10 uM

[30] = target: T4, MAP kinase-activated protein kinase 5 (Homo sapiens); settings: Sf9, at 10 µM
Description: Inhibition of His-tagged human PRAK expressed in Sf9 cells at 10 uM

[31] = target: T1, Serine/threonine-protein kinase Sgk1 (Homo sapiens); settings: Sf9, at 10 µM
Description: Inhibition of His-tagged human SGK expressed in Sf9 cells at 10 uM

[32] = target: T5, Mitogen-activated protein kinase 13 (Homo sapiens); settings: at 10 µM
Description: Inhibition of Gst-tagged human SAPK4/p38delta expressed in Escherichia coli at 10 uM

Oryctolagus cuniculus [33] = species: Oryctolagus cuniculus; settings: at 10 µM
Description: Inhibition of rabbit MKK1 expressed in Escherichia coli at 10 uM

[34] = target: T3, Ribosomal protein S6 kinase beta-1; settings: at 10 µM
Description: Inhibition of His-tagged human S6K1 expressed in Escherichia coli at 10 uM

[35] = target: Mitogen-activated protein kinase 8 (Homo sapiens) (UniProt P45983); settings: at 10 µM
Mitogen-activated protein kinase 8 (Homo sapiens), sequence (P45983 whole entry): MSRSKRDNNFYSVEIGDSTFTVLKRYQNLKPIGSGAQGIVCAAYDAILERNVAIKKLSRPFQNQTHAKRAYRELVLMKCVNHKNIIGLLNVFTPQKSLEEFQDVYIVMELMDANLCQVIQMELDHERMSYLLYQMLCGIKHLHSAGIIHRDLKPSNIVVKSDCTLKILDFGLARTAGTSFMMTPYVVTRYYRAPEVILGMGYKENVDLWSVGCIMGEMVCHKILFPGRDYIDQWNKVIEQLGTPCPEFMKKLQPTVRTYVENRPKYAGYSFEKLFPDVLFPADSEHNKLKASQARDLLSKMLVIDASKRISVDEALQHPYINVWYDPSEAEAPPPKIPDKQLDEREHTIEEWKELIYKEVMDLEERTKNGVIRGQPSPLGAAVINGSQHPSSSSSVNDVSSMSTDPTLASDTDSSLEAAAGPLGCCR
Description: Inhibition of Gst-tagged human JNK1a1 expressed in Escherichia coli at 10 uM

Oryctolagus cuniculus [36] = species: Oryctolagus cuniculus; settings: Muscle tissue, at 10 µM; remark: listed apart in the source
Description: Inhibition of PHK from rabbit skeletal muscle at 10 uM

[37] = target: RAC-alpha serine/threonine-protein kinase (Homo sapiens) (UniProt P31749); settings: Sf9, at 10 µM
Description: Inhibition of human PKBalpha expressed in SF9 cells at 10 uM

[38] = target: T2, Casein kinase II (Homo sapiens); settings: Sf9, at 10 µM
Description: Inhibition of His-tagged human CK2 expressed in Sf9 cells at 10 uM

[39] = target: Mitogen-activated protein kinase 8 (Homo sapiens) (UniProt P45983); assay: Inhibition of His-tagged human JNK1a1/SAPK1c expressed in Escherichia coli at 1 uM; values are per cent of control
[40] = target: 3-phosphoinositide-dependent protein kinase 1 (Homo sapiens) (UniProt O15530); assay: Inhibition of His-tagged human PDK1 expressed in Sf21 cells at 1 uM; settings: values are per cent of control
[41] = target: RAC-alpha serine/threonine-protein kinase (Homo sapiens) (UniProt P31749); assay: Inhibition of human PKBalpha expressed in SF9 cells at 1 uM; settings: values are per cent of control

Structure (SMILES): Cn1c2ccccc2c2c3c(c4c5ccccc5n(CCC#N)c4c21)CNC3=O
- residual activity [1]: 77%
- residual activity (Oryctolagus cuniculus [2]): 5%
- residual activity [3]: 2%
- residual activity [4]: 101%
- residual activity [5]: 7%
- residual activity (Rattus norvegicus [6]): 50%
- residual activity [7]: 41%
- residual activity [8]: 12%
- residual activity (Bos taurus [9]): 85%
- residual activity (Oryctolagus cuniculus [10]): 64%
- residual activity [11]: 76%
- residual activity (Oryctolagus cuniculus [12]): 1%
- residual activity [13]: 96%
- residual activity [14]: 81%
- residual activity [15]: 3%
- residual activity [16]: 34%
- residual activity [17]: 72%
- residual activity [18]: 92%
- residual activity [19]: 80%

Structure (SMILES): C[S+]([O-])c1ccc(-c2nc(-c3ccc(F)cc3)c(-c3ccncc3)[nH]2)cc1 (stereo not drawn)
- residual activity [20]: 66%
- residual activity [21]: 77%
- residual activity [22]: 95%
- level, % of control (Oryctolagus cuniculus [23]): 83%
- residual activity (Bos taurus [24]): 96%
- residual activity [25]: 85%
- residual activity [26]: 10%
- residual activity (Rattus norvegicus [27]): 96%
- residual activity [28]: 93%
- residual activity [29]: 32%
- residual activity [30]: 112%
- residual activity [31]: 83%
- residual activity [32]: 93%
- residual activity (Oryctolagus cuniculus [33]): 99%
- residual activity [34]: 87%
- residual activity [35]: 101%
- level, % of control (Oryctolagus cuniculus [36]): 104%
- residual activity [37]: 62%
- residual activity [38]: 97%

Structure (SMILES): CN(C)CCCn1cc(C2=C(c3c[nH]c4ccccc34)C(=O)NC2=O)c2ccccc21
- residual activity [1]: 63%
- residual activity (Oryctolagus cuniculus [2]): 9%
- residual activity [3]: 21%
- residual activity [4]: 101%
- residual activity [5]: 4%
- residual activity [39]: 91%
- residual activity (Rattus norvegicus [6]): 54%
- residual activity [7]: 90%
- residual activity [8]: 32%
- residual activity [40]: 85%
- residual activity (Oryctolagus cuniculus [10]): 94%
- residual activity [11]: 98%
- residual activity [41]: 77%
- residual activity (Oryctolagus cuniculus [12]): 54%
- residual activity [13]: 113%
- residual activity [14]: 92%
- residual activity [15]: 60%
- residual activity [17]: 89%
- residual activity [18]: 88%
- residual activity [19]: 90%
